What was measured:
[1] = compound: O=[As]([O-])(O)O.[K+] [potassium arsenate]; experiment: thermal stability z-score vs DMSO; higher = more thermally stabilized by treatment; details: HeLa; arsenate concentration 1 mM
Experimental: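 Cellular thermal proteome profiling in HeLa cells treated with 1 mM arsenate for 1 h (DMSO pretreatment), heated to ten temperatures (37-66.3 °C). Soluble protein was quantified by TMT mass spectrometry relative to DMSO controls; the thermal stability score was transformed to a z-score; mean of n = 3 experiments.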

[2] = compound: NC(=O)CCCCC1CCSS1 [lipoamide]; experiment: as above; details: HeLa, lipoamide concentration 100 µM
Experimental: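 Cellular thermal proteome profiling in HeLa cells. Cells were treated with 100 µM lipoamide for 1 h, with or without 1 mM arsenate for a further 1 h, then heated to ten temperatures (37-66.3 °C), and soluble protein was quantified by TMT mass spectrometry relative to 0.1% DMSO controls. The thermal stability score (sum of log2 fold changes minus the abundance score) was transformed to a z-score; mean of n = 3 experiments.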

[3] = arsenate co-treatment: 1 mM arsenate 1 h
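Also: each temperature applied for 3 min, abundance score taken as mean log2 fold change at the two lowest temperatures, z-score obtained by mean subtraction and division by SD.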

Chain of UniProt Q969M7 (Q969M7 whole entry): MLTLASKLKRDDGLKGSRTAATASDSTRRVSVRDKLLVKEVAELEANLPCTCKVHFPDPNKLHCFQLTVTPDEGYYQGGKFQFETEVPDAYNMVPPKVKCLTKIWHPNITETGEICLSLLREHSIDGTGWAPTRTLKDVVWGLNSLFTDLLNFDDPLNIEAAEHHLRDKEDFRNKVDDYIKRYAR
Chain of UniProt Q14847 (Q14847 whole entry): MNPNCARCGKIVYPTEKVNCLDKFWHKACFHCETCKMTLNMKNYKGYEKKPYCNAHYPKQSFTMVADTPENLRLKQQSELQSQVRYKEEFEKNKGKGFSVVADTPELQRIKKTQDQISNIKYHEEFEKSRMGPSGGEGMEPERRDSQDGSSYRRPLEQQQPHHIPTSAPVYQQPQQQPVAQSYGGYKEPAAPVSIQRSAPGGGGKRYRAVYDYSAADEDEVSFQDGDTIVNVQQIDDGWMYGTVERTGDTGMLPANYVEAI
Chain of UniProt O60566 (O60566 whole entry): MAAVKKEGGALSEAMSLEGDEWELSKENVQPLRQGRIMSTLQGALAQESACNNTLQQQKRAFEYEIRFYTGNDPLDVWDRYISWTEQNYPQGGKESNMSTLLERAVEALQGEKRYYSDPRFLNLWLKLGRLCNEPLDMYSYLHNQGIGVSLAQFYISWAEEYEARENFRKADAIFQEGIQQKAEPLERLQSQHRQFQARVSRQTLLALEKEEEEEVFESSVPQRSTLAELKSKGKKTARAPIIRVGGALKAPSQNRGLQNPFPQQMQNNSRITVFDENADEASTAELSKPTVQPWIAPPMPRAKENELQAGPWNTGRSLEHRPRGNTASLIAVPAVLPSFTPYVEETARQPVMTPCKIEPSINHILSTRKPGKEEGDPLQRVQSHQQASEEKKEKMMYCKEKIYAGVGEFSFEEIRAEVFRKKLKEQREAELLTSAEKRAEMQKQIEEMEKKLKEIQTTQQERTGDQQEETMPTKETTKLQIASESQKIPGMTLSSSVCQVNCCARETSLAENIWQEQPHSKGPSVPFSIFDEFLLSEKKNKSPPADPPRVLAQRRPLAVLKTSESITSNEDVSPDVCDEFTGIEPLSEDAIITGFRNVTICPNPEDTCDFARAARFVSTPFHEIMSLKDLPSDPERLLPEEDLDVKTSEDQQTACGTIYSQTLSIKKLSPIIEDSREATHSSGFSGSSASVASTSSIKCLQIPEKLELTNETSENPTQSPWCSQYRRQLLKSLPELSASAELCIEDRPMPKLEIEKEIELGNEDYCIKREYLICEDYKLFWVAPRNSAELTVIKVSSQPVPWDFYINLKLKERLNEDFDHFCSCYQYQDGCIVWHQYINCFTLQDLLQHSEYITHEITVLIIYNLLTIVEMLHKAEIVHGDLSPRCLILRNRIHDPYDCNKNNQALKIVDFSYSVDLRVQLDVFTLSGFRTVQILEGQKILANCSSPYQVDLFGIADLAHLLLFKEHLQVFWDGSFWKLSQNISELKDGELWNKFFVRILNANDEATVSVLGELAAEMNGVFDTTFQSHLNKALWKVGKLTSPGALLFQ
Chain of UniProt P30046 (P30046 whole entry): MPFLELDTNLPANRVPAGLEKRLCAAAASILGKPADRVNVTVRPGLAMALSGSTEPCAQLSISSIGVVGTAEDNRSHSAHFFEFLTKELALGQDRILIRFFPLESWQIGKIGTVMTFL
Chain of UniProt Q9NZZ3 (Q9NZZ3 whole entry): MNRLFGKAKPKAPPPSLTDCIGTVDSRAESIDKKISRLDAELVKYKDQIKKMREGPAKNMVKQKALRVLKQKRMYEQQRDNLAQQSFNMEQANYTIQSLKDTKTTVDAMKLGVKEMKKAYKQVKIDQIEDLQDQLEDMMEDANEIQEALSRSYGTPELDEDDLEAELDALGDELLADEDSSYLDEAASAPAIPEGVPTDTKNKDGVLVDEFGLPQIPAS
Chain of UniProt Q16763 (Q16763 whole entry): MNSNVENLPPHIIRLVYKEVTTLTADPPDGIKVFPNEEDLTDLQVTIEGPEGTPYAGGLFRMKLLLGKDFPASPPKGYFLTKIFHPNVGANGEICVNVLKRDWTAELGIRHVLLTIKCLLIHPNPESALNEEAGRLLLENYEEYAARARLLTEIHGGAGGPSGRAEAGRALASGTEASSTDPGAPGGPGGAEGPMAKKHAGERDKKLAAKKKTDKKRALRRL
Chain of UniProt Q9HD34 (Q9HD34 whole entry): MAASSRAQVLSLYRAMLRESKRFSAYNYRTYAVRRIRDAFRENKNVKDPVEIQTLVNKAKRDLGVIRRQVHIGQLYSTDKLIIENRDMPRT
Chain of UniProt Q96EY8 (Q96EY8 whole entry): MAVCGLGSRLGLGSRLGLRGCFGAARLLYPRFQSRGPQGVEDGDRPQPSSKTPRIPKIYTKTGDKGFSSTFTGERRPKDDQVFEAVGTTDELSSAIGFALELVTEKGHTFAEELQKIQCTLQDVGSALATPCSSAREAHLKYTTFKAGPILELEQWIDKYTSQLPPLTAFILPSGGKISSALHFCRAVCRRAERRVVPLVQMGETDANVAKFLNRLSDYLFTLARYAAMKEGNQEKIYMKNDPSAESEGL
Chain of UniProt P33991 (P33991 whole entry): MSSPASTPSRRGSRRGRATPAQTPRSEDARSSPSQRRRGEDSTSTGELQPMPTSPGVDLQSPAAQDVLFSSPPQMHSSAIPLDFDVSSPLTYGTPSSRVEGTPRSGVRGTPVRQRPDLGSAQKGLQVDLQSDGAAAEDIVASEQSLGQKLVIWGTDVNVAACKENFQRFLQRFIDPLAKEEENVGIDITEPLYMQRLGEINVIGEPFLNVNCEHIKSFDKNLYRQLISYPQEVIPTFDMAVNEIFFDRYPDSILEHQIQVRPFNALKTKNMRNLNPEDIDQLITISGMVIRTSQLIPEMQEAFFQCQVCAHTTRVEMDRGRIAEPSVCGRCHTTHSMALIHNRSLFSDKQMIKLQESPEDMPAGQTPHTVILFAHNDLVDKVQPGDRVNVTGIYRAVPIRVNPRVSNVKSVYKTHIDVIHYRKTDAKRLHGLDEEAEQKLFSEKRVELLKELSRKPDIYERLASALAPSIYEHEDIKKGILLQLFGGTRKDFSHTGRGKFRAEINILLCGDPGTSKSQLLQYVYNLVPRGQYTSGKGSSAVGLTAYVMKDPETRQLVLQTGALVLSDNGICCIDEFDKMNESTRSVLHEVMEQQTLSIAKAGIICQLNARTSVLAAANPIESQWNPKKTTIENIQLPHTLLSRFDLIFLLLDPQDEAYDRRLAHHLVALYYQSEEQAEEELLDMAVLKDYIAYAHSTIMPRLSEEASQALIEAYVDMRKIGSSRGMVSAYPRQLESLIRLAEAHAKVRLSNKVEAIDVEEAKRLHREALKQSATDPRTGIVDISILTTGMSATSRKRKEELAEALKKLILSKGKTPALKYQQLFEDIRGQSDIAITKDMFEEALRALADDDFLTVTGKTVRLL
Chain of UniProt Q13625 (Q13625 whole entry): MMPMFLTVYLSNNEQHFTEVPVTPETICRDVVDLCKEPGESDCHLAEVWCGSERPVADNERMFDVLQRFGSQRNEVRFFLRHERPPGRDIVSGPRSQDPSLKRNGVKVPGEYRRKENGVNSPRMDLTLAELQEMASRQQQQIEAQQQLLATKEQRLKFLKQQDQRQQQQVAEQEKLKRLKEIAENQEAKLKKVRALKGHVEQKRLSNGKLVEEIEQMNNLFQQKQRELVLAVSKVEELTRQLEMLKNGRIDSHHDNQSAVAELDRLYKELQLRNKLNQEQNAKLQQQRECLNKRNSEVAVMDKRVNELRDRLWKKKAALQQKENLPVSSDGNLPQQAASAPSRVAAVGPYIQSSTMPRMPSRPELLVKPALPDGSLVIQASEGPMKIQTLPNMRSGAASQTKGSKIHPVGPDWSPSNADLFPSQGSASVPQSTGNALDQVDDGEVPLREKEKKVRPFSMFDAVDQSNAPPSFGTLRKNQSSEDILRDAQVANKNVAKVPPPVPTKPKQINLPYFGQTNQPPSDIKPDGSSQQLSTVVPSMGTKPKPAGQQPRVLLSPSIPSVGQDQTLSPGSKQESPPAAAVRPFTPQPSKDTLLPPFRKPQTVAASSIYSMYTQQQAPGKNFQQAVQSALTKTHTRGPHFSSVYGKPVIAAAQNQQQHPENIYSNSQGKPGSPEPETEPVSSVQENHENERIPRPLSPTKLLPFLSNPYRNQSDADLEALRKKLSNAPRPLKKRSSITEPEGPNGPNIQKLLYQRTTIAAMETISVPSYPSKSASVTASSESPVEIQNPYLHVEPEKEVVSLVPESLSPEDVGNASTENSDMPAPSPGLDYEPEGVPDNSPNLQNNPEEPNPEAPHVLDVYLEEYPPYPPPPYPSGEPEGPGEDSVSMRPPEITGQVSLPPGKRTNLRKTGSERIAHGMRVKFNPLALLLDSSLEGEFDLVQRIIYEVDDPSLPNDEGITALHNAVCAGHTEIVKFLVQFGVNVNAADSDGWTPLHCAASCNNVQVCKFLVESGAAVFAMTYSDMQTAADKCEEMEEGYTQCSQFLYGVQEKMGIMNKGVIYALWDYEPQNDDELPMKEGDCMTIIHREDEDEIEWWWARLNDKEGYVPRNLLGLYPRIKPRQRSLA
Chain of UniProt O15379 (O15379 whole entry): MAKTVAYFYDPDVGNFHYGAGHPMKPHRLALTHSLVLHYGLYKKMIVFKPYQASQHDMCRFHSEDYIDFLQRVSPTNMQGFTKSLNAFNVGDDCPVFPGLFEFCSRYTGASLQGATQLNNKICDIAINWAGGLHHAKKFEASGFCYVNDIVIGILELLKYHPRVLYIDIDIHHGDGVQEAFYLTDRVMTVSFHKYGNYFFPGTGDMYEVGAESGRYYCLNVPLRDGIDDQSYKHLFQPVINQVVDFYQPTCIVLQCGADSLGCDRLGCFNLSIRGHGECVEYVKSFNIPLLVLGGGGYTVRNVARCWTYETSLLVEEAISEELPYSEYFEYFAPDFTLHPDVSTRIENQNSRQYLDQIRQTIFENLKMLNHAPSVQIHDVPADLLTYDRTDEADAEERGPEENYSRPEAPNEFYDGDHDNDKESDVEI

Target | thermal stability z-score [1] | thermal stability z-score [2, 3] | thermal stability z-score ([2]; arsenate co-treatment: none)
TP53BP2 (UniProt Q13625) | -1.29 | -1.06 | 0.188
CFAP97 (UniProt Q9P2B7) | -0.864 | -1 | -0.518
TXNDC5 (UniProt Q8NBS9) | 0.0646 | -2.16 | -1.86
RASSF8 (UniProt Q8NHQ8) | -0.0803 | -0.0675 | -0.05
NFATC2IP (UniProt Q8NCF5) | -0.254 | -0.124 | -0.127
RPL21 (UniProt P46778) | -1.03 | 0.61 | 0.308
SYF2 (UniProt O95926) | -0.951 | 1.83 | 0.837
CDK6 (UniProt Q00534) | 0.123 | -0.218 | 0.136
GUSB (UniProt P08236) | 0.885 | -0.178 | -0.261
PRCP (UniProt P42785) | 0.42 | -0.242 | -0.33
ABCB8 (UniProt Q9NUT2) | -1.1 | -0.84 | -0.813
MCM4 (UniProt P33991) | -0.472 | -0.472 | -0.0478
PRMT7 (UniProt Q9NVM4) | 1.47 | -0.363 | 0.259
C21ORF59 (UniProt P57076) | 0.112 | 0.103 | 0.1
FIGNL1 (UniProt Q6PIW4) | -1 | -0.113 | -0.0699
EAPP (UniProt Q56P03) | -0.167 | 0.767 | 0.459
TGOLN2 (UniProt O43493) | -0.275 | 0.152 | 0.0237
COMMD9 (UniProt Q9P000) | -0.0631 | -0.221 | -0.146
MSLN (UniProt Q13421) | -2.44 | -0.583 | -0.696
GCC1 (UniProt Q96CN9) | -0.179 | -0.192 | -0.169
HDAC3 (UniProt O15379) | -0.0998 | -0.0189 | -0.0121
KIAA1217 (UniProt Q5T5P2) | 0.188 | -0.00757 | -0.0174
TBCK (UniProt Q8TEA7) | -0.192 | 0.135 | 0.0192
TAF7 (UniProt Q15545) | 0.641 | -0.3 | -0.347

Target | thermal stability z-score [1] | thermal stability z-score [2, 3] | thermal stability z-score ([2]; arsenate co-treatment: none)
LIG1 (UniProt P18858) | 0.24 | -0.166 | 0.00122
LONP1 (UniProt P36776) | -0.763 | -0.482 | -0.277
MOCS2 | -0.289 | 0.00471 | 0.303
ERLIN2 (UniProt O94905) | -0.0487 | -1.05 | -0.752
UTRN (UniProt P46939) | -0.495 | 0.452 | -0.0132
CHMP5 (UniProt Q9NZZ3) | -0.246 | 0.869 | 0.597
VTA1 (UniProt Q9NP79) | -0.12 | 0.703 | 0.296
MVK (UniProt Q03426) | -0.675 | -0.352 | -0.323
SERPINB4 (UniProt P48594) | -0.0226 | 0.303 | 0.197
PDP1 (UniProt Q9P0J1) | -0.0616 | 0.0374 | -0.191
RBM47 | -0.629 | 0.133 | -0.661
MMAB (UniProt Q96EY8) | -0.58 | -1.28 | -1.35
CRTC1 (UniProt Q6UUV9) | -0.151 | -0.063 | -0.202
FOCAD (UniProt Q5VW36) | -0.279 | 0.151 | 0.411
CARS (UniProt P49589) | -0.416 | -0.705 | -0.132
THNSL1 (UniProt Q8IYQ7) | 0.0365 | 0.202 | -0.188
DDT (UniProt P30046) | 0.0872 | -0.198 | 0.134
CCDC25 (UniProt Q86WR0) | 0.439 | 0.415 | 0.668
NDUFV1 (UniProt P49821) | 0.585 | 0.281 | 0.0892
UBAC2 (UniProt Q8NBM4) | -0.0559 | -0.594 | -0.778
LYRM4 (UniProt Q9HD34) | -0.348 | -0.401 | 0.0692
DYNC1LI1 (UniProt Q9Y6G9) | 0.463 | -0.18 | -0.1
ERO1A (UniProt Q96HE7) | 0.59 | -0.923 | 0.193
MCU (UniProt Q8NE86) | 0.57 | -0.0937 | 0.21

Target | thermal stability z-score [1] | thermal stability z-score [2, 3] | thermal stability z-score ([2]; arsenate co-treatment: none)
BUB1B (UniProt O60566) | 0.247 | 0.0397 | 0.232
HTATSF1 (UniProt O43719) | -0.763 | 0.386 | 0.479
POLR2I (UniProt P36954) | -2.41 | 1.79 | 0.367
AKAP2 | -0.839 | 1.28 | 0.638
ITGA6 (UniProt P23229) | 0.156 | -0.0761 | 0.174
HADHA (UniProt P40939) | -0.331 | -0.0579 | 0.088
GOLGA5 (UniProt Q8TBA6) | 0.197 | 0.419 | 0.582
LASP1 (UniProt Q14847) | -0.178 | 0.387 | 0.383
DNAJC25 (UniProt Q9H1X3) | 0.282 | -1.46 | -0.0502
HNRNPH2 (UniProt P55795) | -0.224 | -0.319 | -0.0126
NT5DC1 (UniProt Q5TFE4) | -0.749 | 0.0662 | -0.687
COBL (UniProt O75128) | -0.0126 | 0.182 | 0.154
RPL18 (UniProt Q07020) | -0.424 | 0.497 | -0.313
NDUFB7 (UniProt P17568) | -0.462 | -0.619 | -0.28
PAXIP1 (UniProt Q6ZW49) | 0.00378 | -0.0199 | 0.255
UniProt G3V599 | 0.593 | -0.297 | -0.663
MIEF1 | -0.198 | -0.243 | -0.035
ACAT2 (UniProt Q9BWD1) | -0.347 | -0.0152 | 6.3e-05
UBE2S (UniProt Q16763) | 0.161 | 0.862 | 0.191
ARHGDIA (UniProt P52565) | 0.318 | 0.784 | 0.465
FBXL12 (UniProt Q9NXK8) | -0.29 | -0.195 | 0.0639
UBE2F (UniProt Q969M7) | -0.224 | -0.0267 | -0.0251
SRXN1 (UniProt Q9BYN0) | 0.115 | 0.0621 | -0.041
CARD19 (UniProt Q96LW7) | 0.524 | 0.507 | 1.37

— the supplement of paper PMC12463676, “Small-molecule dissolution of stress granules by redox modulation benefits ALS models” (Nature Chemical Biology, 2025)
